The NIST ThermoML archive (doi:10.1021/je700287u)

Assay: xn = mol fraction of the nth substance listed
Settings: Liquid

CN(CCO)CCO [N-methyldiethanolamine] + O
Settings | mass density [kg/m3]
352.84 K, 15989 kPa, x1 = 0.1302 | 1010.4
352.84 K, 16976 kPa, x1 = 0.1302 | 1010.8
352.84 K, 17977 kPa, x1 = 0.1302 | 1011.2
352.84 K, 18979 kPa, x1 = 0.1302 | 1011.6
352.84 K, 19995 kPa, x1 = 0.1302 | 1012
352.85 K, 1004 kPa, x1 = 0.0369 | 983.9
352.85 K, 2037 kPa, x1 = 0.0369 | 984.4
352.85 K, 2962 kPa, x1 = 0.0369 | 984.8
352.85 K, 4014 kPa, x1 = 0.0369 | 985.2
352.85 K, 4994 kPa, x1 = 0.0369 | 985.6
352.85 K, 6034 kPa, x1 = 0.0369 | 986.1
352.85 K, 6999 kPa, x1 = 0.0369 | 986.5
352.85 K, 8019 kPa, x1 = 0.0369 | 987
352.85 K, 8987 kPa, x1 = 0.0369 | 987.3
352.85 K, 9992 kPa, x1 = 0.0369 | 987.8
352.85 K, 10987 kPa, x1 = 0.0369 | 988.2
352.85 K, 11994 kPa, x1 = 0.0369 | 988.6
352.85 K, 12978 kPa, x1 = 0.0369 | 989.1
352.85 K, 13987 kPa, x1 = 0.0369 | 989.4
352.85 K, 14998 kPa, x1 = 0.0369 | 989.9
352.85 K, 15956 kPa, x1 = 0.0369 | 990.2
352.85 K, 16987 kPa, x1 = 0.0369 | 990.7
352.85 K, 17991 kPa, x1 = 0.0369 | 991.1
352.85 K, 18986 kPa, x1 = 0.0369 | 991.5
352.85 K, 19988 kPa, x1 = 0.0369 | 991.9
352.88 K, 1037 kPa, x1 = 0.0893 | 998.6
352.88 K, 2010 kPa, x1 = 0.0893 | 999
352.88 K, 3005 kPa, x1 = 0.0893 | 999.5
352.88 K, 4010 kPa, x1 = 0.0893 | 999.9
352.88 K, 4999 kPa, x1 = 0.0893 | 1000.3
352.88 K, 5993 kPa, x1 = 0.0893 | 1000.7
352.88 K, 7000 kPa, x1 = 0.0893 | 1001.1
352.88 K, 7998 kPa, x1 = 0.0893 | 1001.6
352.88 K, 8982 kPa, x1 = 0.0893 | 1002
352.88 K, 9977 kPa, x1 = 0.0893 | 1002.4
352.88 K, 10995 kPa, x1 = 0.0893 | 1002.8
352.88 K, 11987 kPa, x1 = 0.0893 | 1003.3
352.88 K, 12999 kPa, x1 = 0.0893 | 1003.7
352.88 K, 13990 kPa, x1 = 0.0893 | 1004.1
352.88 K, 14969 kPa, x1 = 0.0893 | 1004.5
352.88 K, 15990 kPa, x1 = 0.0893 | 1004.9
352.88 K, 16991 kPa, x1 = 0.0893 | 1005.3
352.88 K, 18009 kPa, x1 = 0.0893 | 1005.8
352.88 K, 18994 kPa, x1 = 0.0893 | 1006.2
352.88 K, 20015 kPa, x1 = 0.0893 | 1006.6
362.71 K, 1012 kPa, x1 = 0.0369 | 977.3
362.71 K, 2054 kPa, x1 = 0.0369 | 977.8
362.71 K, 3004 kPa, x1 = 0.0369 | 978.2
362.71 K, 3981 kPa, x1 = 0.0369 | 978.6
362.71 K, 4997 kPa, x1 = 0.0369 | 979.1
362.71 K, 6006 kPa, x1 = 0.0369 | 979.5
362.71 K, 7005 kPa, x1 = 0.0369 | 979.9
362.71 K, 7962 kPa, x1 = 0.0369 | 980.3
362.71 K, 8999 kPa, x1 = 0.0369 | 980.8
362.71 K, 9999 kPa, x1 = 0.0369 | 981.2
362.71 K, 10997 kPa, x1 = 0.0369 | 981.6
362.71 K, 11979 kPa, x1 = 0.0369 | 982
362.71 K, 12988 kPa, x1 = 0.0369 | 982.5
362.71 K, 13990 kPa, x1 = 0.0369 | 982.9
362.71 K, 14982 kPa, x1 = 0.0369 | 983.4
362.71 K, 15982 kPa, x1 = 0.0369 | 983.8
362.71 K, 16992 kPa, x1 = 0.0369 | 984.2
362.71 K, 17958 kPa, x1 = 0.0369 | 984.6
362.71 K, 18984 kPa, x1 = 0.0369 | 985.1
362.71 K, 19984 kPa, x1 = 0.0369 | 985.5
362.72 K, 1043 kPa, x1 = 0.1302 | 995.9
362.72 K, 2117 kPa, x1 = 0.1302 | 996.4
362.72 K, 3008 kPa, x1 = 0.1302 | 996.8
362.72 K, 3995 kPa, x1 = 0.1302 | 997.3
362.72 K, 5002 kPa, x1 = 0.1302 | 997.8
362.72 K, 5994 kPa, x1 = 0.1302 | 998.2
362.72 K, 6994 kPa, x1 = 0.1302 | 998.6
362.72 K, 8003 kPa, x1 = 0.1302 | 999.1
362.72 K, 8988 kPa, x1 = 0.1302 | 999.6
362.72 K, 9991 kPa, x1 = 0.1302 | 1000
362.72 K, 11003 kPa, x1 = 0.1302 | 1000.4
362.72 K, 12036 kPa, x1 = 0.1302 | 1000.9
362.72 K, 13005 kPa, x1 = 0.1302 | 1001.3
362.72 K, 13983 kPa, x1 = 0.1302 | 1001.7
362.72 K, 14984 kPa, x1 = 0.1302 | 1002.2
362.72 K, 15981 kPa, x1 = 0.1302 | 1002.6
362.72 K, 16993 kPa, x1 = 0.1302 | 1003
362.72 K, 17988 kPa, x1 = 0.1302 | 1003.5
362.72 K, 18994 kPa, x1 = 0.1302 | 1003.9
362.72 K, 19995 kPa, x1 = 0.1302 | 1004.4
362.75 K, 993 kPa, x1 = 0.0893 | 990.9
362.75 K, 2025 kPa, x1 = 0.0893 | 991.3
362.75 K, 3013 kPa, x1 = 0.0893 | 991.8
362.75 K, 3995 kPa, x1 = 0.0893 | 992.2
362.75 K, 5018 kPa, x1 = 0.0893 | 992.7
362.75 K, 6003 kPa, x1 = 0.0893 | 993.1
362.75 K, 6988 kPa, x1 = 0.0893 | 993.6
362.75 K, 8002 kPa, x1 = 0.0893 | 994
362.75 K, 8996 kPa, x1 = 0.0893 | 994.4
362.75 K, 10040 kPa, x1 = 0.0893 | 994.9
362.75 K, 11000 kPa, x1 = 0.0893 | 995.3
362.75 K, 11988 kPa, x1 = 0.0893 | 995.7
362.75 K, 12992 kPa, x1 = 0.0893 | 996.1
362.75 K, 13990 kPa, x1 = 0.0893 | 996.6
362.75 K, 14990 kPa, x1 = 0.0893 | 997
362.75 K, 15993 kPa, x1 = 0.0893 | 997.5
362.75 K, 17004 kPa, x1 = 0.0893 | 997.9
362.75 K, 17984 kPa, x1 = 0.0893 | 998.3
362.75 K, 19022 kPa, x1 = 0.0893 | 998.7
362.75 K, 19984 kPa, x1 = 0.0893 | 999.2
